Read-outs that look alike come from different tables or passages of the source.
Assays:
M1 muscarinic receptor = biological target: T1, M1 muscarinic receptor (Homo sapiens, UniProt P11229); assay: Functional mobilization of intracellular calcium (FLIPR, Fluo-3), M1-CHO cells; format: cell-based; conditions: for Emax: 100% efficacy is the maximum response obtained with the Carbachol control, read-out: M1 Efficacy
T1 construct: expressed in transfected cells; host or cells: CHO cells (M1-CHO, under zeocin and G418 selection)
T1 sequence (P11229 1-460): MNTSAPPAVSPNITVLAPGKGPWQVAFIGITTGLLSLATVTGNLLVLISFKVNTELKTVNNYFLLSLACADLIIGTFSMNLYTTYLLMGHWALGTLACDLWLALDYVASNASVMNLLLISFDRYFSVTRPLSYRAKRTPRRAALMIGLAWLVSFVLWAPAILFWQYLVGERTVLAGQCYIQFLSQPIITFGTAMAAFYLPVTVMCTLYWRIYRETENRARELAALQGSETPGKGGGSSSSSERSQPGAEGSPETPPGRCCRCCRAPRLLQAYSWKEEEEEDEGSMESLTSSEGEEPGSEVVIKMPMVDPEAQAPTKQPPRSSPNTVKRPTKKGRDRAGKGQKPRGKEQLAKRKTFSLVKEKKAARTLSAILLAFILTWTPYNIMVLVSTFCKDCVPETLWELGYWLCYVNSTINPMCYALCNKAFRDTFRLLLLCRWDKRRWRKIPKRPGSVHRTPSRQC
Method in brief: (§1)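 Fluo-3 read-out, ex 488/em 540 nm, 60 sec on FLIPR 3. For agonist mode, compound added directly; for inhibition, 15 min compound pre-incubation before carbachol at EC80 (added as a 3× solution), or co-application. Buffer pH 7.4 with 1 mM probenecid; DMSO 0.5%.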

M4 muscarinic receptor = biological target: T2, M4 muscarinic receptor (Homo sapiens, UniProt P08173); assay: Functional mobilization of intracellular calcium (FLIPR, Fluo-3), M4-CHO cells; format: cell-based; conditions: for Emax: 100% efficacy is the maximum response obtained with the Carbachol control, read-out: M4 Efficacy
T2 construct: expressed in transfected cells; host or cells: CHO cells (M4-CHO, under puromycin, zeocin and blasticidin selection)
T2 sequence (P08173 1-479): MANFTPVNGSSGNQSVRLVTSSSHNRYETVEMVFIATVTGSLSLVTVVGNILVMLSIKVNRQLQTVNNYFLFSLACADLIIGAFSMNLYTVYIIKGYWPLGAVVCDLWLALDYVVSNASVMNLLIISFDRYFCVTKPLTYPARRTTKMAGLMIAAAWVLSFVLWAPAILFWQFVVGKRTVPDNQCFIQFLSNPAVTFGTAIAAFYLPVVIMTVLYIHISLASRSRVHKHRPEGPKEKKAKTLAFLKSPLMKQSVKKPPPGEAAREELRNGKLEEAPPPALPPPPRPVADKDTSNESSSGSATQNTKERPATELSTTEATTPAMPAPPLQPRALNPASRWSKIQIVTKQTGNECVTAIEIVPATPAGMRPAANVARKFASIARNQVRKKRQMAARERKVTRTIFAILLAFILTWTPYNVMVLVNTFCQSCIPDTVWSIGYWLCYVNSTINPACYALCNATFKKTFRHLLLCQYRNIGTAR
Method in brief: as §1

[1] = compound nos. 1-454, M1-CHO cells, calcium mobilization
[2] = compound nos. 1-454, M4-CHO cells, calcium mobilization

Row | Structure (SMILES) | Emax (M1 muscarinic receptor; compound nos. 1-454) [%] | M1 Activity (M1 muscarinic receptor; [1]) | Emax (M4 muscarinic receptor; compound nos. 1-454) [%] | M4 Activity (M4 muscarinic receptor; [2]) | M1 Activity (M1 muscarinic receptor; compound nos. 1-454) | M4 Activity (M4 muscarinic receptor; compound nos. 1-454) | Emax (M1 muscarinic receptor; compound nos. 455-509) [%] | M1 Activity (M1 muscarinic receptor; compounds 455-509) | Emax (M4 muscarinic receptor; compound nos. 455-509) [%] | M4 Activity (M4 muscarinic receptor; compounds 455-509)
1 | CCOC(=O)N1CCC(N2CCC3(CC2)CN(C(=O)OCC(C)C)c2ccc(F)cc23)CC1 [compound 30] | > 85 | +++ (activity was measured to be less than or equal to 0.7 μM) | > 70 | +++ (activity was measured to be less than or equal to 0.1 μM) | – | – | – | – | – | –
2 | CC(=O)N1CC2(CCN(C3CCC(C(C)C)CC3)CC2)c2cc(F)ccc21 (stereo not shown) [compound 226] | < 65 | + (activity was measured to be greater than or equal to 3.0 μM) | < 55 | + (activity was measured to be greater than or equal to 4.0 μM) | – | – | – | – | – | –
3 | CCOC(=O)N1CCC(N2CCC3(CC2)CN(C(C)=O)c2c(F)cccc23)CC1 [compound 381] | 65 to 85 | – | < 55 | – | +++ (activity was measured to be less than or equal to 0.7 μM) | + (activity was measured to be greater than or equal to 4.0 μM) | – | – | – | –
4 | CCNC(=O)N1CC2(CCN(C3CC4CCC3C4)CC2)c2cc(C)ccc21 (stereo not shown) [compound 400] | < 65 | – | < 55 | – | + (activity was measured to be greater than or equal to 3.0 μM) | + (activity was measured to be greater than or equal to 4.0 μM) | – | – | – | –
5 | CCOC(=O)N1CCC(N2CCC3(CC2)CN(C(C)=O)c2ccc(-c4cccc(C)c4)cc23)CC1 [compound 6] | 65 to 85 | +++ (activity was measured to be less than or equal to 0.7 μM) | 55 to 70 | ++ (activity was measured to be between 0.1 μM and 4.0 μM) | – | – | – | – | – | –
6 | COCCOC(=O)N1CC2(CCN(C3CC4CCC(C3)N4C(=O)OCCOC)CC2)c2cc(F)ccc21 (stereo not shown) [compound 117] | 65 to 85 | +++ (activity was measured to be less than or equal to 0.7 μM) | < 55 | ++ (activity was measured to be between 0.1 μM and 4.0 μM) | – | – | – | – | – | –
7 | Clc1ccc2c(c1)C1(CCN([C@H]3C[C@@H]4CC[C@H]3C4)CC1)CO2 [compound 181] | 65 to 85 | ++ (activity was measured to be between 0.7 μM and 3.0 μM) | 55 to 70 | + (activity was measured to be greater than or equal to 4.0 μM) | – | – | – | – | – | –
8 | CCOC(=O)N1CCC(N2CCC3(CC2)CN(C(=O)c2ccc(OC)cc2)c2ccc(F)cc23)CC1 [compound 41] | > 85 | +++ (activity was measured to be less than or equal to 0.7 μM) | > 70 | +++ (activity was measured to be less than or equal to 0.1 μM) | – | – | – | – | – | –
9 | c1ccc2c(c1)NCC21CCN(C2CCC3CCC2C3)CC1 (stereo not shown) [compound 244] | 65 to 85 | ++ (activity was measured to be between 0.7 μM and 3.0 μM) | 55 to 70 | + (activity was measured to be greater than or equal to 4.0 μM) | – | – | – | – | – | –
10 | CC(=O)N1CC2(CCN(C3CCCCC3)CC2)c2cc(F)ccc21 [compound 387] | 65 to 85 | – | < 55 | – | +++ (activity was measured to be less than or equal to 0.7 μM) | ++ (activity was measured to be between 0.1 μM and 4.0 μM) | – | – | – | –
11 | CC(=O)N1CC2(CCN(C3CCN(c4nccs4)CC3)CC2)c2ccccc21 [compound 491] | – | – | – | – | – | – | < 25 | + (activity was measured to be greater than or equal to 5.0 μM) | < 25 | ++ (activity was measured to be between 2.0 μM and 5.0 μM)
12 | CC(=O)NC1CC2(CCN(C3CCCCCC3)CC2)c2ccccc21 (stereo not shown) [compound 159] | > 85 | ++ (activity was measured to be between 0.7 μM and 3.0 μM) | > 70 | + (activity was measured to be greater than or equal to 4.0 μM) | – | – | – | – | – | –
13 | CCOC(=O)N1C2CCC1CC(N1CCC3(CC1)CN(C(=O)c1cc(C)oc1C)c1ccc(F)cc13)C2 (stereo not shown) [compound 73] | 65 to 85 | +++ (activity was measured to be less than or equal to 0.7 μM) | 55 to 70 | ++ (activity was measured to be between 0.1 μM and 4.0 μM) | – | – | – | – | – | –

Reference: patent US7858635B2 (priority 2005, dated 2010)
